The values below come from a melting point compilation (Tetko et al.; mined from patent text by program, amines drawn as free bases though some values may be those of a salt).

Molecules are shown by their SMILES.

A word on the melting point: it is the temperature of the solid-liquid transition. The compound `O=C(Nc1ccccc1)Nc1cccc(Nc2ncnc3[nH]cc(C(=O)c4ccccc4)c23)c1` showed a melting point greater than 300 °C. Compound `O=C(NCCc1ccccn1)c1ccc2cc(C(=O)N3CC(CCl)c4ccc([N+](=O)[O-])cc43)[nH]c2c1` (stereo not drawn) had a melting point of 204 to 207 °C. In the case of `COc1ccc(CCc2ccc(-c3ccc(OC(F)F)cc3)cc2)cc1`, the melting point was 153 °C. `CC(=O)NCC(=O)N1CC1C#N` (stereo not drawn): the melting point fell in the range of 102 to 104 °C. Compound `COc1cc(Br)c2nc(-c3ccc(OC)c(F)c3)cc(Cl)c2c1` came in with a melting point of 176 to 177 °C. In turn, `Nc1sc(-c2ccccc2)c(CN(C2CCCCC2)C2CCCCC2)c1C(=O)c1ccc(Cl)cc1` registered a melting point of 201 to 203 °C.

`NC(=O)c1ccnn1-c1ccc(Oc2ccccc2)cc1` had a melting point of 142 to 144 °C.

`CCCCCCCCCCCCCCOCC(CO)(CO)COCCCCCCCCCCCCCC` gave a melting point of 63 to 64 °C. In turn, `CCCCCCCCC1(CCCCCCCC)c2cc(Br)ccc2-c2ccc(Br)cc21` showed a melting point of 52 to 54 °C. For the compound `Cc1cc(SCc2ccc(OCc3ccc(F)cc3F)cc2)ccc1OCC(=O)O`, the melting point was 139 to 141 °C. Compound `CC(=O)N(C)C(Cc1ccccc1N)c1sccc1C` (stereo not drawn) had a melting point of 176 to 182 °C. The compound `O=C1N=C(N2CCOCC2)SC1c1cncc(-c2cc3c(c(C45CC6CC(CC(C6)C4)C5)c2)OCO3)c1` (stereo not drawn) had a melting point of 255 to 258 °C. As to `COC(=O)[C@@H]1C[C@H](N=[N+]=[N-])C(=O)[C@H]2[C@@]1(C)CC[C@H]1C(=O)O[C@H](c3ccoc3)C[C@]21C`, the melting point was 200 to 203 °C. The compound `C=C(C(=O)c1ccc(C(=O)O)cc1)c1ccc(OC)c(-c2cccs2)c1` returned a melting point of 163 to 164 °C. The compound `O=C(NC(CC12CC3CC(CC(C3)C1)C2)Nc1c(Nc2cccnc2)c(=O)c1=O)c1ccccc1Cl` (stereo not drawn) showed a melting point of 224 to 225 °C. `CC(=O)N[C@@H]1CN2C(=O)N(c3cc(Cl)cc(Cl)c3)C(=O)[C@@]2(Cc2ccc(Br)cc2)C1` showed a melting point of 141 °C. For the compound `CCc1nsc(N=C(Cl)N(C)C)c1C#N`, the melting point lay in the range of 95 to 97 °C. The compound `Clc1cc2c(cc1Br)C(=C1CCNCC1)c1ncccc1CO2` yielded a melting point of 198 to 199 °C.

`CN(C(=O)CN1C(=O)C(NC(=O)Nc2cccc(C#N)c2)N=C(CN2CCOCC2)c2ccccc21)c1ccccc1` (stereo not drawn): the melting point lay within 165 to 167 °C.

The compound `Nc1ccc2c(c1)c1ccccc1n2CCC(=O)NCCO` had a melting point of 217 to 218 °C. Turning to `CNc1ccc(Cl)cc1Cc1ccccc1`, the melting point came to 125 °C. With `O=C1NC(Cc2ccc(OCc3ccccc3)cn2)C(=O)NC1Cc1ccc(F)cc1` (stereo not drawn), the melting point fell in the range of 220 to 222 °C. Consider `N#CCCNN=Cc1ccc(C=NNCCC#N)cc1`, for which the melting point lay in the range of 111 to 113 °C. `O=C1OCCCCOC(=O)c2ccc(cc2)-c2ccc1cc2` returned a melting point of 266 °C. `COc1ccc(-c2nc(N)c(C(N)=O)nc2-c2ccc(=O)n(C(C)C)c2)cc1` yielded a melting point of 244 °C. As for `O=[N+]([O-])c1cc(-c2ccoc2)ccc1Nc1cccc(-n2cccc2)c1`, the melting point fell in the range of 129 to 131 °C. `Fc1ccc(-c2n[nH]cc2-c2ccnc(Cl)n2)cc1` had a melting point of 204 to 205 °C. The compound `NS(=O)(=O)c1cc(C(=O)O)cc(NCCCC(=O)O)c1Oc1ccccc1` registered a melting point of 240 to 241 °C. The compound `COC(=O)CN(CCN(CCN(CC(=O)OC)S(=O)(=O)c1ccc(C)cc1)S(=O)(=O)c1ccc(C)cc1)S(=O)(=O)c1ccc(C)cc1` showed a melting point of 141 to 142 °C. For `CCOC(=O)N1CCN=C1CC(c1ccccc1)c1ccccc1`, the melting point lay within 78 to 80 °C. Compound `COc1nnccc1-c1ccccc1OCC(O)CNC(C)(C)C` (stereo not drawn) came in with a melting point of 110 °C. Then `NN=C1C(=O)Nc2cccc(Cl)c21`, with 235 to 236 °C. With `O=C(CN1C(=O)CC1S(=O)(=O)c1ccccc1)NCCCCCCc1ccc(Cl)cc1` (single isomer, unassigned; (-)), the melting point was in the range of 106 to 109 °C. As to `O=C1c2ccccc2CN2C(=O)CCC12` (stereo not drawn), the melting point lay in the range of 105 to 107 °C.

Take `Cc1ccc(-c2ccc(C(=O)Nc3ccc4cc(CN5CCCC5)cnc4c3F)c(F)c2)cc1`: the melting point came out at 173 °C. The compound `C[C@@H]1Cc2ccsc2[C@H](C)N1CCCCNS(=O)(=O)c1ccc(NS(C)(=O)=O)cc1` (relative stereo) gave a melting point of 134 to 136 °C. `c1cncc(-c2nccs2)c1`: the melting point was 44 to 45 °C. On to `NS(=O)(=O)c1ccc(CCN2CCN(c3ccncc3)CC2)cc1`, for which the melting point lay in the range of 203 to 204 °C.

The compound `COC(=O)Nc1ccc(OCCn2ccnc2)cc1` had a melting point of 152 to 153 °C. Take `CCCCCCCC(=O)c1ccc(CCC(C)(COC(C)=O)NC(C)=O)cc1` (stereo not drawn): the melting point was 88 to 89 °C. The compound `O=Cc1ccc(O)c(OCc2ccccc2)c1Cl` came in with a melting point of 149 to 150 °C. Regarding `CCN(C)C(N)=C(C#N)C#N`, the melting point lay in the range of 140 to 141 °C. `CCC(O)(c1ccc(OCCCN2CCCCC2)cc1)c1cccc(C(F)(F)F)c1` (stereo not drawn): the melting point is 124 to 125 °C. As for `OC1(c2ccc(Br)cc2)CCC2(CC1)OCCO2`, the melting point fell in the range of 156 to 158 °C. Then `CCCn1c(COCC)nc2c(N)nc3cc(OC4CCN(C(C)=O)CC4)ccc3c21`, with 178 to 180 °C; and `O=S1NC(Cc2ccc3c(c2)OCO3)=NO1` (stereo not drawn), with 132 to 133 °C. `NS(=O)(=O)c1cc(NC(=O)c2cnn3c(C(F)F)cc(-c4ccc(C(F)(F)F)cc4)nc23)c(Cl)s1` returned a melting point of 298 °C. In turn, `CCOC(=O)C(Nc1ccc(C(=O)OC)cc1)C(=O)OCC` had a melting point of 66 to 69 °C. In the case of `COc1ccc2c(Cc3c(Cl)cncc3Cl)nnc(-n3ccnc3)c2c1`, the melting point was greater than 250 °C. For `CCC(=O)Cc1nc2ccccc2c(=O)o1`, the melting point lay within 70 to 72 °C. Turning to `COc1ccc(N2CCN(c3ccc([N+](=O)[O-])nc3)CC2)cc1`, the melting point lay in the range of 186 to 188 °C.

Turning to `CNc1cccc2c(=O)c(C)c(-c3ccccc3)oc12`, the melting point is 143 to 146 °C.

`CC[C@H](CO)Nc1nc(NCc2ccccc2)c2nnn(C(C)C)c2n1` yielded a melting point of 115 to 118 °C. Compound `COc1ccc(C(=O)Nc2cc([N+](=O)[O-])ccc2C)cc1OC` gave a melting point greater than 300 °C. `CC(C)(C)NC(=O)Nc1nc2nc(N)ncc2cc1-c1ccccc1` returned a melting point greater than 250 °C. Then `COCC(=O)NNC1=Nc2sc(Cl)cc2C(c2ccccc2[N+](=O)[O-])=NC1`, with 198 to 200 °C; and `COC(=O)c1cccc2cc(C)n(Cc3ccc(-c4ccccc4-c4nnn[nH]4)cc3)c12`, with 180 to 182 °C; and `O=C(O)c1c([N+](=O)[O-])ccc2c1OCCO2`, with 188 °C. For the compound `CC(=O)OCC1OC(Oc2ccc(N)cc2)C(OC(C)=O)C(OC(C)=O)C1OC(C)=O` (stereo not drawn), the melting point lay in the range of 130 to 133 °C. The same measure for `CCn1nc(C)c(NC(N)=S)c1C`: 248 °C; for `Cc1ccc(-c2cc(N3CCCCC3)c(C#N)c3c2-c2ccccc2C3)cc1`: 162 to 164 °C. The same measure for `COc1ccc(COc2cccnc2N)c(F)c1`: 135 to 138 °C. For `O=C(OCC(=O)c1ccc(C(F)(F)F)cc1)Oc1ccccc1`, the melting point fell in the range of 134 to 135 °C. The same measure for `CC(C)(C)NC(=O)NC1(C#N)CCC1`: 212 to 214 °C; for `c1ccc(COc2ccc(NC3=NN(c4ccccc4)CC3)cc2)cc1`: 187 to 188 °C. Then `CS(=O)(=O)c1ccc(-c2cnn(-c3ccc(F)c(Cl)c3)c(=O)c2Cc2ccc(F)cc2)cc1`, with 153 to 156 °C; and `COc1ccc(Cn2c(C)c(Br)c3cnnc(OCc4ccccc4)c32)cc1`, with 149 to 152 °C; and `CC1(C)C2C(=O)OC(C(Br)(Br)Br)C21` (stereo not drawn), with 101 to 103 °C. Compound `Cc1cc2nc(C(=O)O)c(=O)[nH]c2cc1C` yielded a melting point of 276 to 285 °C. `COc1cc(C2c3cc4c(cc3C(NC(=O)CNCCN(C)C)C3COC(=O)C23)OCO4)cc(OC)c1O` (stereo not drawn) returned a melting point of 230 °C. `CC1(C2Cc3ccccc3O2)CCCCC1` (stereo not drawn) yielded a melting point of 60 to 63 °C.

In turn, `CC(C(=O)O)c1ccc(C(=O)c2ccc3ccccc3c2)cc1` (stereo not drawn) had a melting point of 150 °C. The compound `CC(C)[C@H]1C[C@@H]([C@H](CC2CCCCC2)NC(=O)OCc2ccccc2)OC1=O` had a melting point of 117 to 118 °C. As for `O=C(Nc1ccc(CCNc2ncccn2)cc1)c1cccs1`, the melting point fell in the range of 191 to 192 °C.

In the case of `COc1ccc(N2CCN(c3ccc(N4C(=O)C5CCCCN5C4=O)cc3)CC2)cc1` (stereo not drawn), the melting point was 223 °C. The same measure for `Nc1nc(N)nc(-c2ccc(-c3ccccc3[N+](=O)[O-])cc2)n1`: greater than 250 °C; for `c1ccc(CN(Cc2ccccc2)c2nccc(-c3ccc(-c4ccc(N(c5ccccc5)c5ccccc5)cc4)cc3)n2)cc1`: 164 to 165 °C; for `COc1cc([N+](=O)[O-])c2nc(N)ccc2c1`: 195 to 197 °C. In turn, `O=C(c1ccc(Cl)cc1)c1cccc(Cl)c1[N+](=O)[O-]` had a melting point of 147 to 148 °C.

For the compound `O=CNc1ccc(F)c(Cl)c1`, the melting point is 94 to 97 °C. Compound `CC(=O)Nc1cc(C(=O)c2ccc(S(=O)(=O)CCO)c(NC(C)=O)c2)ccc1S(=O)(=O)CCO` came in with a melting point of 189 to 192 °C. For the compound `Clc1cccc(-c2nc(Cl)cc(Cl)n2)c1`, the melting point is 118 to 120 °C. Then `CC1=C(C(=O)OC(C)C)C(c2ccccc2F)n2nncc2N1` (stereo not drawn), with 137 to 139 °C. The same measure for `COc1ccc([C@@H]2Cc3c(cccc3C(F)(F)F)N(CC3=NCCN3C(=O)OC(C)(C)C)C(=O)[C@@H]2OC(C)=O)cc1`: 105 to 108 °C; for `O=C(O)/C=C/n1cnc2ccc(C3CC3)cc2c1=O`: 291 to 293 °C; for `Cc1cccc(-n2nc(C)cc2-c2ccnc(C#N)c2)c1`: 128 to 130 °C. In the case of `COc1ccc(Cc2cnc(NCCc3ccccc3Cl)nc2N2CCc3cc(OC)c(OC)cc3C2)cc1OC`, the melting point lay in the range of 140 to 141 °C. With `CCOC(=O)C(=O)c1cc(F)cc2cccnc12`, the melting point lay in the range of 114 to 117 °C.
